Laboratory results from US20260167972A1, “AMINO ACID DERIVATIVES AS NOVEL DELIVERY AGENTS FOR FUNCTIONAL DELIVERY OF OLIGONUCLEOTIDES” (University of Rochester, priority 2022, published 2026).
Where “and” joins values, the source holds several entries; their conditions need not be identical. Identical values can stand only once. Entries after “also recorded” stand apart in the source; their conditions may differ.

Columns and labels:
[1] = Dynamic light scattering of N-X-Phe-DAP/siRNA nanoparticles; assay type: physicochemical; details: for Diameter (nm), DLS: N-X-Phe-DAP/siRNA nanoparticles, 5 μM derivative, 30 nM siRNA, ± standard deviation
Experimental: (§1) Each N-X-Phe-DAP derivative (100 μM) was mixed with siRNA (600 nM) in H2O for 30 minutes, followed by dilution of this mixture into DMEM cell culture media to final concentrations of 5 μM N-X-Phe-DAP derivative and 30 nM siRNA. Dynamic light scattering (DLS) and transmission electron microscopy (TEM) were utilized to analyze the physical characteristics of the resulting N-X-Phe-DAP/siRNA nanoparticles (Table 2, FIG. 4). […] Average diameter (nm), determined by dynamic light scattering (DLS) and TEM imaging, is reported as the average of […] with the error reported as the standard deviation of the mean. Binding affinity (Kd) of each agent to siRNA was determined by a slot blot filtration assay with values reported as the average of three measurements and error reported as the standard deviation of the mean. […] (B) Diameter (nm) determined by TEM (n=9, ***p≤0.001 ****p≤0.0001).
Dynamic Light Scattering: N-X-Phe-DAP derivatives (100 μM) were complexed with siRNA (600 nM) in Ultrapure™ DNase/RNase-Free Distilled Water (Invitrogen 10977015) and allowed to incubate for 30 minutes at room temperature. These solutions were then diluted into water to give final concentrations of 5 μM Phe derivative and 30 nM siRNA. Dynamic light scattering measurements were taken using a DynaPro Plate Reader II. Diameter is reported as an average of 10 measurements using Dynamics software.

[2] = Transmission electron microscopy of N-X-Phe-DAP/siRNA nanoparticles; assay type: physicochemical; details: for Diameter (nm), TEM: N-X-Phe-DAP/siRNA nanoparticles, 5 μM derivative, 30 nM siRNA, ± standard deviation; for morphology of siRNA nanoparticles/aggregates: TEM images, FIG. 4
Experimental: as §1
Transmission Electron Microscopy: N-X-Phe-DAP derivatives (100 μM) were complexed with siRNA (600 nM) in Ultrapure™ DNase/RNase-Free Distilled Water (Invitrogen 10977015) and allowed to incubate for 30 minutes at room temperature. These solutions were then diluted into water to give final concentrations of 5 μM Phe derivative and 30 nM siRNA. Samples (5 μL) were spotted on 200 mesh carbon coated copper grids and excess solvent was removed by capillary action with filter paper after 60 seconds. Grids were then stained with uranyl acetate (5 μL) for 60 seconds by excess solvent was removed by capillary action with filter paper. Grids were left to dry for 10 minutes. Images were taken using a Hitachi 7650 transmission electron microscope with an accelerating voltage of 80 kV.

A549 cells = assay: MTT cytotoxicity assay; assay type: cell-based, human; details: normalized to naïve control, ± SEM
Experimental: A549 cells were dosed with 100 µM of these derivatives for 4 h (FIG. 7A), 24 h (FIG. 7B), and 48 h (FIG. 7C). FIG. 7 reports cell viability as percent viability of A549 cells normalized to naïve control. (A) Cell viability after 4 h dosing (n=3, *p≤0.05, **p≤0.01). (B) Cell viability after 24 h dosing (n=3, *p≤0.05, **p≤0.01). (C) Cell viability after 48 h dosing (n=3, *p≤0.05, **p≤0.01, ****p≤0.0001). […] An MTT assay was performed after dosing for 4 h, 24 h, 48 h, or 4 h with media change and additional 48 h incubation. Average values are reported with calculated standard error of the mean (SEM).
The cells will also recover after exposure to N-X-Phe-DAP derivatives under conditions that resemble knockdown experiments. Cells were dosed with N-X-Phe-DAP derivatives or Lipofectamine for 4 hours, after which the media was aspirated and replaced with DMEM cell culture media and incubated for an additional 48 hours (FIG. 8). This protocol mimics the gene knockdown experiments and acts as a better indication of how cytotoxicity may impact gene silencing measurements.
Sample Preparation for Cell-Based Experiments: For delivery analysis and functional knockdown, N-X-Phe-DAP derivatives (10 μL, 1 mM) or Lipofectamine 3000 (6 μL) was mixed with TTF-1 siRNA (Santa Cruz Biotechnology sc-36756, 6 μL, 10 μM) in Ultrapure™ DNase/RNase-Free Distilled Water (Invitrogen 10977015) to give a final volume of 100 μL. These mixtures were incubated for 30 minutes at room temperature, followed by dilution into 1×DMEM (Gibco 11965092, 1.9 mL). For cytotoxicity assays, N-X-Phe-DAP derivatives (10 μL, 1 mM) were diluted into 1×DMEM (Gibco 11965092, 1.9 mL).
MTT Cytotoxicity Assay: All cytotoxicity assays were performed in triplicate. A549 cells were seeded at a density of 2400 cells/well in a 96-well plate (200 μL) and grown to 70-90% confluency. Cells were washed with 1×PBS (200 μL), N-X-Phe-DAP derivatives were added (200 μL/well), and incubated 4 h, 24 h, or 48 h at 37° C., 5% CO2 or for 4 h at 37° C., 5% CO2 followed by washing with 1×PBS and addition of complete media containing 1×DMEM (Gibco 11965092), 10% fetal bovine serum (FBS, Invitrogen 26140087), and 1× antibiotic-antimycotic (Gibco 15240-062). A solution of thiazoyl blue tetrazolium bromide (MTT, 1 mg/mL) was prepared in 1×DMEM devoid of phenol red (Invitrogen 31053028). After the appropriate incubation time, cells were washed with 1×PBS, dosed with MTT (200 μL), and incubated an additional 1 h at 37° C., 5% C02 in the dark. The 96-well plate was centrifuged for 5 min at 4000 rpm, the media was aspirated, and DMSO (100 μL) was added to the wells. Absorbance measurements (550 nm) were taken on a Tecan Infinite M1000 Pro plate reader. Cell viability was then calculated and normalized to the naïve control.

Diameter (nm), DLS [1] [nm] | Diameter (nm), TEM [2] [nm] | morphology of siRNA nanoparticles/aggregates [2] | diameter of siRNA nanoparticles by DLS and TEM measurements [1] [nm] | Compound | Cell Viability (%) 4 h Dosing (A549 cells) [%] | Cell Viability (%) 24 h Dosing (A549 cells) [%] | Cell Viability (%) 48 h Dosing (A549 cells) [%] | Cell Viability (%) Media Change After 4 h Followed by 48 h Incubation (A549 cells) | Cell Viability (%) 4 h Dosing (A549 cells; listed as Fmoc-Pyr-DAP) | Cell Viability (%) 24 h Dosing (A549 cells; listed as Fmoc-Pyr-DAP) [%]
221 ± 26 | 211 ± 17 | spherical micelle-like structures |  | NCCCNC(=O)[C@H](Cc1ccccc1)NC(=O)Cc1cccc2ccccc12 [1-Nap-Phe-DAP] | 65.3 ± 3.7 | 69.5 ± 5.9 | 45.1 ± 3.1 | 56.5 ± 1.1% |  | 
156 ± 13 | 136 ± 7 | spherical micelle-like structures |  | NCCCNC(=O)[C@H](Cc1ccccc1)NC(=O)OCC1c2ccccc2-c2ccccc21 [Fmoc-Phe-DAP] | 76.3 ± 2.8 | 96.5 ± 3.2 | 63.7 ± 5.1 | 76.1 ± 4.9% |  | 
139 ± 14 | 163 ± 10 | spherical micelle-like structures |  | NCCCNC(=O)[C@H](Cc1ccccc1)NC(=O)CC1c2ccccc2-c2ccccc21 [Fm-Phe-DAP] | 60.7 ± 3.6 | 51.7 ± 4.4 | 26.7 ± 4.0 | 72.6 ± 7.4% |  | 
125 ± 74 | 71 ± 2 | smaller spheres | ~100 | NCCCNC(=O)[C@H](Cc1ccccc1)NC(=O)C1CCCCC1 [Cyc-Phe-DAP] | 58.3 ± 9.2 | 59.6 ± 4.9 | 60.4 ± 2.6 | 67% and 66.5 ± 5.1% |  | 
94 ± 14 | 93 ± 9 | smaller spheres | ~100 | NCCCNC(=O)[C@H](Cc1ccccc1)NC(=O)OCc1ccccc1 [Cbz-Phe-DAP] | 60.8 ± 3.8 | 69.8 ± 8.2 | 53.7 ± 3.0 | 50.2 ± 3.4% |  | 
416 ± 33 | 450 ± 27 | spherical micelle-like structures |  | NCCCNC(=O)[C@H](Cc1ccccc1)NC(=O)Cc1ccc2ccccc2c1 [2-Nap-Phe-DAP] | 50.4 ± 1.5 | 58.3 ± 6.0 | 44.3 ± 8.7 | 60.7 ± 1.6% |  | 

Compound | Diameter (nm), DLS [1] [nm] | Diameter (nm), TEM [2] [nm] | morphology of siRNA nanoparticles/aggregates [2] | diameter of siRNA nanoparticles by DLS and TEM measurements [1] [nm] | Cell Viability (%) 4 h Dosing (A549 cells) [%] | Cell Viability (%) 24 h Dosing (A549 cells) [%] | Cell Viability (%) 48 h Dosing (A549 cells) [%] | Cell Viability (%) Media Change After 4 h Followed by 48 h Incubation (A549 cells) | Cell Viability (%) 4 h Dosing (A549 cells; listed as Fmoc-Pyr-DAP) | Cell Viability (%) 24 h Dosing (A549 cells; listed as Fmoc-Pyr-DAP) [%]
CCCCCCC(=O)N[C@@H](Cc1ccccc1)C(=O)NCCCN [Hex-Phe-DAP] | 50 ± 6 | 81 ± 10 | mixtures of spherical particles and one-dimensional fibril-like structures; also recorded: primarily exhibiting fibril and sheet-like structures that aggregate into bundles |  | 38.9 ± 3.7 | 66.0 ± 5.5 | 52.1 ± 4.5 | 53% and 53.1 ± 4.5% |  | 
NCCCNC(=O)[C@H](Cc1c(F)c(F)c(F)c(F)c1F)NC(=O)OCC1c2ccccc2-c2ccccc21 [Fmoc-F5-Phe-DAP] | 202 ± 15 | 140 ± 12 | mixtures of spherical particles and one-dimensional fibril-like structures |  | 48.1 ± 5.9 |  |  | 54.2 ± 6.2% |  | 
NCCCNC(=O)[C@H](Cc1cccc(F)c1)NC(=O)OCC1c2ccccc2-c2ccccc21 [Fmoc-3F-Phe-DAP] | 228 ± 18 | 170 ± 8 | mixtures of spherical particles and one-dimensional fibril-like structures |  | 59.9 ± 3.8 | 75.3 ± 5.0 | 42.0 ± 2.4 | 71.1 ± 6.3% |  | 
NCCCNC(=O)[C@H](Cc1ccccc1)NC(=O)CCCc1ccc2ccc3cccc4ccc1c2c34 [Pyr-Phe-DAP] | 105 ± 8 | 50 ± 5.0 | mixtures of spherical particles and one-dimensional fibril-like structures; also recorded: dominated by fibril-like structures with some evidence of spherical nanoparticles |  | 17.2 ± 1.1 | 2.6 ± 0.8 |  | 22.3 ± 2.7% | less than 20% | < 3
